This is an account of results in PMC9077246, “Novel spirocyclic tranylcypromine derivatives as lysine-specific demethylase 1 (LSD1) inhibitors” (RSC Advances, 2018).

Usually IC50 stands for the midpoint of a concentration-inhibition curve.

One test concerns the target T1, MAO-B (Homo sapiens, UniProt P27338).
T1 sequence (P27338 1-520): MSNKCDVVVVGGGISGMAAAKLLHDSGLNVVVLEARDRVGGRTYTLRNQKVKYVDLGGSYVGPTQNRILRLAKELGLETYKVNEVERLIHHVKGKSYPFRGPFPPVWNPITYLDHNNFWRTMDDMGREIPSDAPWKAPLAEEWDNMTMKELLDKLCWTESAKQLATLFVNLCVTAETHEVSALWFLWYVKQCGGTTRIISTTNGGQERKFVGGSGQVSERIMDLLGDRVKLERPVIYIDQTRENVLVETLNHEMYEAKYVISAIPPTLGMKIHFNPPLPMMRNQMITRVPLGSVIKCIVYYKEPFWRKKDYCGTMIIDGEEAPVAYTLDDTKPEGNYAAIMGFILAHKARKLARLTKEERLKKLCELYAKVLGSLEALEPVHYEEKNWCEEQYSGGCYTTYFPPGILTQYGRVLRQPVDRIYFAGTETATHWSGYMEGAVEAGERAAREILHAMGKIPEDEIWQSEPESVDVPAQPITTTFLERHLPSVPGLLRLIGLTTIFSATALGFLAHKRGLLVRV
The test can be described thus: biochemical.

For test [1], the target named is T2, Recombinant human LSD1 (172–852 aa) (Homo sapiens, UniProt O60341). Nature of the test: biochemical.
Description: (§1) LSD1 or LSD2 enzyme inhibition assay was performed with Lance Ultra LSD1 Histone H3-Lysine 4 Demethylase Assay kit (Perkin Elmer) according to the manufacturer's protocol. […] The test was carried out in triplicate. And the IC50 data was calculated using the software GraphPad Prism 5, and chosen the equation “sigmoidal dose–response (variable slope)” for curve fitting.
Test [2] deals with T3, MAO-A (Homo sapiens, UniProt P21397).
T3 sequence (P21397 1-527): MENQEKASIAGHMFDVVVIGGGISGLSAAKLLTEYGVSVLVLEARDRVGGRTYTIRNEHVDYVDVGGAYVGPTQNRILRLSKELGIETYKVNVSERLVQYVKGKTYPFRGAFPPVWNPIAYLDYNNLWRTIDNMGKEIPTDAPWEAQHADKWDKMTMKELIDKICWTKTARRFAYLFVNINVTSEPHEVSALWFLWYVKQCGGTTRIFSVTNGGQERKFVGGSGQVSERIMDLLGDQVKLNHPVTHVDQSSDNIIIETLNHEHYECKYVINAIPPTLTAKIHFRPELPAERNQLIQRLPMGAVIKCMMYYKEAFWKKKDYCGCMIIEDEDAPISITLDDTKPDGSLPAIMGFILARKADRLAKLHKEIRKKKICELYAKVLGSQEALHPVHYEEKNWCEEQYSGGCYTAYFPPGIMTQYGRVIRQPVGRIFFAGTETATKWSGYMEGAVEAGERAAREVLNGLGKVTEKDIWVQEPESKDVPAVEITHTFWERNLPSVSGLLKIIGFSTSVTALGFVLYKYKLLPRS
Nature of the test: biochemical.
Description: (§2) MAO-A and MAO-B enzymes were purchased from Sigma-Aldrich and the inhibition assay was tested with Promega MAO-Glo™ Assay kit according to the manufacturer's protocol. The luminescent signals were detected using Envision (PerkinElmer). The test was carried out in triplicate. And the IC50 data was calculated using the software GraphPad Prism 5, and chosen the equation “sigmoidal dose–response (variable slope)” for curve fitting.

The next test has as its target T4, full-length LSD2 (Homo sapiens, UniProt Q8NB78).
T4 sequence (Q8NB78 1-822): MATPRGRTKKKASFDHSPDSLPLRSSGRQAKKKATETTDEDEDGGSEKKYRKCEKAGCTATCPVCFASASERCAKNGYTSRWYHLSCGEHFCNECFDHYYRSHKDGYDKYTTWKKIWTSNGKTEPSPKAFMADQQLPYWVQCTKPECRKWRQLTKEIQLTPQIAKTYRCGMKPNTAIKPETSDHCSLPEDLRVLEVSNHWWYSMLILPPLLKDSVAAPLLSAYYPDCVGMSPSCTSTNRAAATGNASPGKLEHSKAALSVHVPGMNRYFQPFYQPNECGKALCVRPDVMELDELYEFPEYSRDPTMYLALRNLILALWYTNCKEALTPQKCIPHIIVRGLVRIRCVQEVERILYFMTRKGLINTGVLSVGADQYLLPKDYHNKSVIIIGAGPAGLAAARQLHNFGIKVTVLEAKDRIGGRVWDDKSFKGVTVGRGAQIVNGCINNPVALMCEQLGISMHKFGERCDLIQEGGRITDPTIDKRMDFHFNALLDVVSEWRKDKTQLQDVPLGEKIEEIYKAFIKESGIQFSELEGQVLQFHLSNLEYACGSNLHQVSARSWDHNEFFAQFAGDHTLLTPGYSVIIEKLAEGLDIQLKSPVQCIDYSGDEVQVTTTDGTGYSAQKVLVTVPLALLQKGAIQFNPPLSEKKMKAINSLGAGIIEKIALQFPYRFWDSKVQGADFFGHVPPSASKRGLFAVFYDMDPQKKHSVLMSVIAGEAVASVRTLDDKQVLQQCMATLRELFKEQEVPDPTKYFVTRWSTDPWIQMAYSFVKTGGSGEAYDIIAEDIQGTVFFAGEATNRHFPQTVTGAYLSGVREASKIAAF
The test can be described thus: LSD2 inhibition assay (Lance Ultra kit, TR-FRET). Type of test: biochemical. Background: TR-FRET usually uses a lanthanide donor and a delayed reading to cut background.

Test [3] has as its target T2, Recombinant human LSD1 (172–852 aa). The following applies: for fold more potent at LSD1 than 8a and 8b, respectively: 21a vs 8a, 21b vs 8b; for fold less potent at LSD1 than the unsubstituted derivatives 21a and 21b: 23a, 23b vs 21a.
Description: as §1
For test [4], the target named is T3, MAO-A. The following applies: IC50 values for LSD1 vs. MAO-A.
Description: as §2
[5] abbreviates: MAO-B, IC50, Table 1, mean ± SEM, eight-point experiments, three independent experiments.
The mark [6] stands for this setting: MAO-A, IC50, Table 1, mean ± SEM, eight-point experiments, three independent experiments.

Structures can show the parent of a compound that is named as a salt.

Description for MAO-B: as §2
Description for full-length LSD2: as §1

Turning to `COc1ccc(F)cc1CN[C@@H]1CC12CCc1ccccc12` (stereo in doubt) [Compound 17a, (2R)-N-(5-Fluoro-2-methoxybenzyl)-2′,3′-dihydrospiro[cyclopropane-1,1′-inden]-2-amine], the IC50 against MAO-B (setting [5]) is 2300 ± 400 nM; in test [1] it was 6.6 ± 1.5 nM; against MAO-A [2] (setting [6]), 920 ± 180 nM; against full-length LSD2, 800 ± 270 nM.

As to `COc1cc(F)ccc1CN[C@@H]1CC12CCc1ccccc12` (stereo in doubt) [Compound 18a, (2R)-N-(4-Fluoro-2-methoxybenzyl)-2′,3′-dihydrospiro[cyclopropane-1,1′-inden]-2-amine], the IC50 against MAO-B (setting [5]) is 8700 ± 1100 nM; in test [1] it was 7.1 ± 1.3 nM; against MAO-A [2] (setting [6]), 2200 ± 700 nM; against full-length LSD2, 660 ± 60 nM.

On to `N[C@@H]1CC12CCc1cc(-c3ccccc3)ccc12` (stereo in doubt) [Compound 28a, (2R)-5′-phenyl-2′,3′-dihydrospiro[cyclopropane-1,1′-inden]-2-amine hydrochloride], for which the IC50 amounted to 170 nM against MAO-B (MAO-B IC50), 100 ± 10 nM in test [1], 460 nM at MAO-A [2] (MAO-A IC50) and 94000 nM against full-length LSD2.

As to `c1cncc(CN[C@@H]2CC23CCc2ccccc23)c1` (mixture of isomers) [Compound 21a, (2R)-N-(Pyridin-3-ylmethyl)-2′,3′-dihydrospiro[cyclopropane-1,1′-inden]-2-amine], the IC50 amounted to 15000 ± 1000 nM against MAO-B (setting [5]), 17 ± 3 nM in test [1] and 10800 ± 1100 nM against MAO-A [2] (setting [6]). The “fold more potent at LSD1 than 8a and 8b, respectively” value in test [3] came to 10 fold.

In the case of `c1ccc(CN[C@H]2CC23CCc2ccccc23)cc1` (stereo in doubt) [Compound 13b, (2S)-N-Benzyl-2′,3′-dihydrospiro[cyclopropane-1,1′-inden]-2-amine], on MAO-A [4], the “selectivity index LSD1 vs. MAO-A in words” value was “low”. Moreover, the IC50 was determined as 5100 ± 100 nM against MAO-B (setting [5]), 110 ± 20 nM in test [1], 130 ± 10 nM against MAO-A [2] (setting [6]) and 2000 ± 200 nM against full-length LSD2.

As for `COc1cc(F)ccc1CN[C@H]1CC12CCc1ccccc12` (stereo in doubt) [Compound 18b, (2S)-N-(4-Fluoro-2-methoxybenzyl)-2′,3′-dihydrospiro[cyclopropane-1,1′-inden]-2-amine], the “selectivity index LSD1 vs. MAO-A in words” value on MAO-A [4] was “low”. Further, the IC50 against MAO-B (setting [5]) amounted to 31000 ± 4000 nM; in test [1], 15 ± 3 nM; against MAO-A [2] (setting [6]) it was 90 ± 10 nM; against full-length LSD2, 490 ± 100 nM.

On to `COc1ccc(F)cc1CN[C@H]1CC12CCc1ccccc12` (stereo in doubt) [Compound 17b, (2S)-N-(5-Fluoro-2-methoxybenzyl)-2′,3′-dihydrospiro[cyclopropane-1,1′-inden]-2-amine], for which the IC50 amounted to 27000 ± 4000 nM against MAO-B (setting [5]), 17 ± 3 nM in test [1], 120 ± 10 nM on MAO-A [2] (setting [6]) and 1700 ± 500 nM at full-length LSD2.

`c1cncc(CN[C@H]2CC23CCc2ccccc23)c1` (mixture of isomers) [Compound 21b, (2S)-N-(Pyridin-3-ylmethyl)-2′,3′-dihydrospiro[cyclopropane-1,1′-inden]-2-amine]: the values for the IC50 (against MAO-B (setting [5]); in test [1]; at MAO-A [2] (setting [6])) were 28000 ± 6000 nM, 20 ± 3 nM and 6000 ± 1100 nM, respectively. Besides, the “fold more potent at LSD1 than 8a and 8b, respectively” value in test [3] is reported as 39 fold.

As to `COc1ncccc1CN[C@@H]1CC12CCc1ccccc12` (stereo in doubt) [Compound 22a, (2R)-N-((2-Methoxypyridin-3-yl)methyl)-2′,3′-dihydrospiro[cyclopropane-1,1′-inden]-2-amine], the results for the IC50 (against MAO-B (setting [5]); in test [1]; against MAO-A [2] (setting [6])) were 47000 ± 5000 nM, 32 ± 6 nM and over 100000 nM, respectively. Besides, the “fold less potent at LSD1 than the cis-isomer” value in test [3] (22a vs 22b) worked out at 3 fold.

Consider `Fc1ncccc1CN[C@H]1CC12CCc1ccccc12` (stereo in doubt) [Compound 23b, (2S)-N-((2-Fluoropyridin-3-yl)methyl)-2′,3′-dihydrospiro[cyclopropane-1,1′-inden]-2-amine], for which the IC50 was 29000 ± 4000 nM on MAO-B (setting [5]), 70 ± 3 nM in test [1], 9800 ± 800 nM at MAO-A [2] (setting [6]) and 8700 ± 800 nM on full-length LSD2. In test [3], the “fold less potent at LSD1 than the unsubstituted derivatives 21a and 21b” value is given as “approximately 4 fold”.

Consider `Fc1ncccc1CN[C@@H]1CC12CCc1ccccc12` (mixture of isomers) [Compound 23a, (2R)-N-((2-Fluoropyridin-3-yl)methyl)-2′,3′-dihydrospiro[cyclopropane-1,1′-inden]-2-amine], for which the IC50 worked out at 8200 ± 1500 nM at MAO-B (setting [5]), 64 ± 1 nM in test [1], 9700 ± 1500 nM against MAO-A [2] (setting [6]) and 13000 ± 3000 nM at full-length LSD2. Moreover, the “fold less potent at LSD1 than the unsubstituted derivatives 21a and 21b” value in test [3] is “approximately 4 fold”.

For `COc1ccc(F)cc1CN[C@@H]1CC12CCc1cc(-c3ccccc3)ccc12` (stereo in doubt) [Compound 30a, (2R)-N-(5-Fluoro-2-methoxybenzyl)-5′-phenyl-2′,3′-dihydrospiro[cyclopropane-1,1′-inden]-2-amine], in test [1], the IC50 was 1700 ± 100 nM. Besides, the “LSD1 IC50 level in words” value in test [3] (potency range in words) was “single digit micromolar range”.
